We go through 78 molecules from EP4291552B1, “MODULATORS OF COMPLEX I” (Boehringer Ingelheim International GmbH, priority 2021, dated 2022).

For orientation: IC50 means the concentration that inhibits the measured activity by half.

In the assay the test system is mice neuroblastoma cells (HT-22). Description: Determination of Cellular Protection (HT22). The settings on record: Mus musculus, HT-22, 16 h, read-out: HT22 IC50.
As to `CN(C)c1ccc2c(c1)/C(=C1\CCCN1)C(=O)N2C` [Compound 1], the IC50 was determined as 282 nM.

Consider `CN(C)c1ccc2c(c1)/C(=C1\COCCN1)C(=O)N2C` [Compound 2], for which the IC50 is 1050 nM.

Regarding `CC(C)Nc1ccc2c(c1)/C(=C1\COCCN1)C(=O)N2C1CCOCC1` [Compound 3], the IC50 was 71 nM. To `O=C1/C(=C2/COCCN2)c2cc(N3CCOCC3)ccc2N1C1CCOCC1` [Compound 4] belongs 3140 nM. The value for `CC(C)Nc1ccc2c(c1)/C(=C1\CN(C3COC3)CCN1)C(=O)N2C1CCOCC1` [Compound 5] was 220 nM. Regarding `CC(C)Nc1ccc2c(c1)C(=C1CCOCC1)C(=O)N2C1CCOCC1` [Compound 6], the IC50 was 207 nM. To `CC(C)N1C(=O)C(=C2CCOCC2)c2cc(N3CCCC3)ccc21` [Compound 7] belongs 256 nM. As to `CC(C)Nc1ccc2c(c1)/C(=C1\CN(C(C)C)CCN1)C(=O)N2C1CCN(C(C)C)CC1` [Compound 8], the concentration for half-maximal inhibition (IC50) was 41 nM. The value for `CN1CCC/C1=C1/C(=O)N(C2CCOCC2)c2ccc(NC3CCC3)cc21` [Compound 9] was 38 nM. As for `CCOC(=O)N1CCC(N2C(=O)/C(=C3/COCCN3)c3cc(NC(C)C)ccc32)CC1` [Compound 10], the 50% inhibitory concentration (IC50) stood at 31 nM.

In the case of `CC(=O)N1CCN/C(=C2\C(=O)N(C3CCOCC3)c3ccc(N4CCCC4)cc32)CC1` [Compound 12], the half-inhibitory concentration (IC50) worked out at 191 nM. To `O=C1/C(=C2/CCOCCN2)c2cc(NC3CCCC3)ccc2N1C1CCOCC1` [Compound 13] belongs 14 nM.

In the case of `O=C1/C(=C2/COCCN2)c2cc(NC3CCC3)ccc2N1C1CCOC1` (stereo not drawn) [Compound 14], the IC50 was found to be 20 nM. The value for `CC(Nc1ccc2c(c1)/C(=C1\COCCN1)C(=O)N2C(C)C)c1cccnc1` (stereo not drawn) [Compound 15] was 115 nM. To `COC1COCCC1Nc1ccc2c(c1)/C(=C1\COCCN1)C(=O)N2C(C)C` (stereo not drawn) [Compound 16] belongs 693 nM; to `CC(Nc1ccc2c(c1)/C(=C1\COCCN1)C(=O)N2C(C)C)c1ccnn1C` (stereo not drawn) [Compound 17], 159 nM. The value for `O=C1/C(=C2/COCCN2)c2cc(NC3CCOCC3)ccc2N1C1CCOCC1` [Compound 18] was 409 nM. In the case of `CC(C)N1CCC(Nc2ccc3c(c2)/C(=C2\COCCN2)C(=O)N3C2CCOCC2)CC1` [Compound 19], the IC50 was found to be 168 nM. For the molecule `CC(Nc1ccc2c(c1)/C(=C1\COCCN1)C(=O)N2C1CCOCC1)C1CC1` (stereo not drawn) [Compound 20], the concentration for half-maximal inhibition (IC50) was 34 nM. The value for `O=C1/C(=C2/COCCN2)c2cc(NCc3cc[nH]n3)ccc2N1C1CCOCC1` [Compound 21] was 253 nM; that for `CC(C)N1C(=O)/C(=C2/CCOCCN2)c2cc(NC3CCC3)ccc21` [Compound 22] was 11 nM; that for `CC(C)N1CCN/C(=C2\C(=O)N(C)c3ccc(N4CCCC4)cc32)C1` [Compound 23] was 173 nM. For the molecule `CC(C)N1C(=O)C(=C2CCOCC2)c2cc(NC3CCC3)ccc21` [Compound 25], the concentration for half-maximal inhibition (IC50) was determined as 96 nM. In the case of `CC(C)Nc1ccc2c(c1)/C(=C1\COCCN1)C(=O)N2C1COCCOC1` [Compound 26], the concentration for half-maximal inhibition (IC50) was 59 nM. The value for `CC(C)C(C)Nc1ccc2c(c1)/C(=C1\COCCN1)C(=O)N2C1COCCOC1` (stereo not drawn) [Compound 27] was 15 nM. To `COCC(C)N1C(=O)/C(=C2/COCCN2)c2cc(NC(C)C)ccc21` (stereo not drawn) [Compound 28] belongs 118 nM; to `CC1CCC(C)N1c1ccc2c(c1)/C(=C1\CCOCCN1)C(=O)N2C1CCOCC1` (stereo not drawn) [Compound 29], 142 nM. `CC(C)Nc1ccc2c(c1)/C(=C1\COCCN1)C(=O)N2[C@H]1CCN(C(C)C)C1` [Compound 31]: the IC50 was 41 nM. With `O=C1/C(=C2/COCCN2)c2cc(NC3CCOCC3)ccc2N1C1CCOC1` (stereo not drawn) [Compound 32], the IC50 stood at 205 nM. Regarding `CC(C)Nc1ccc2c(c1)/C(=C1\COCC(C)N1)C(=O)N2C1CCOCC1` (stereo not drawn) [Compound 33], the 50% inhibitory concentration (IC50) came out at 37 nM. Consider `CC(=O)N1CCC2(CC1)CN/C(=C1\C(=O)N(C(C)C)c3ccc(NC(C)C)cc31)CO2` [Compound 34], for which the half-inhibitory concentration (IC50) worked out at 49 nM. The value for `Nc1ccc2c(c1)/C(=C1\COCCN1)C(=O)N2C1CCOCC1` [Compound 35] was 2720 nM; that for `CC(C)N1C(=O)/C(=C2/COCCN2)c2cc(NC3CCOCC3)ccc21` [Compound 36] was 56 nM; that for `CC(Nc1ccc2c(c1)/C(=C1\COCCN1)C(=O)N2C(C)C)C1CCC1` (stereo not drawn) [Compound 37] was 3 nM. On to `CC(C)N1C(=O)/C(=C2/COCCN2)c2cc(NC3CCN(C)CC3)ccc21` [Compound 38], for which the IC50 stood at 38 nM. With `CC(C)N1C(=O)/C(=C2/COCCN2)c2cc(NCC3CCOC3)ccc21` (stereo not drawn) [Compound 39], the 50% inhibitory concentration (IC50) came to 102 nM. The value for `CN1C(=O)/C(=C2/CCNCCN2)c2cc(N3CCCC3)ccc21` [Compound 40] was 13 nM; that for `CN(C)c1ccc2c(c1)/C(=C1\CCOCCN1)C(=O)N2C` [Compound 41] was 983 nM; that for `CN(C)c1ccc2c(c1)/C(=C1\CCCN1)C(=O)N2C1CCOCC1` [Compound 42] was 951 nM.

Regarding `CNc1ccc2c(c1)/C(=C1\CCCN1)C(=O)N2C1CCOCC1` [Compound 43], the IC50 amounted to 124 nM.

Take `CC(C)Nc1ccc2c(c1)/C(=C1\COCCN1)C(=O)N2C(C)C` [Compound 44]: the IC50 is 30 nM. Take `CN1C(=O)/C(=C2/CCN(C3COC3)CCN2)c2cc(N3CCCC3)ccc21` [Compound 45]: the half-maximal inhibitory concentration (IC50) came out at 261 nM.

As to `CC(C)Nc1ccc2c(c1)/C(=C1\CN(C(C)C)CCN1)C(=O)N2C1CCOCC1` [Compound 46], the IC50 was 48 nM. `CC(C)Nc1ccc2c(c1)C(=C1CCOCC1)C(=O)N2C(C)C` [Compound 47]: the IC50 is 85 nM. Regarding `CC(C)Nc1ccc2c(c1)/C(=C1\CCCN1C)C(=O)N2C1CCOCC1` [Compound 48], the half-maximal inhibitory concentration (IC50) was determined as 353 nM. The value for `CN1CCC/C1=C1/C(=O)N(C2CCOCC2)c2ccc(NC3CCOC3)cc21` (stereo not drawn) [Compound 49] was 1250 nM; that for `O=C1/C(=C2/COCCN2)c2cc(NC3CCCC3)ccc2N1C1COCCOC1` [Compound 50] was 13 nM.

For `O=C1/C(=C2/COCCN2)c2cc(NC3CCC3)ccc2N1C1COC1` [Compound 51], the IC50 was 33 nM. For the molecule `COCC(C)Nc1ccc2c(c1)/C(=C1\COCCN1)C(=O)N2C1CCOC1` (stereo not drawn) [Compound 52], the IC50 is 198 nM. The value for `CC(=O)N1CCC2(CC1)CN/C(=C1\C(=O)N(C(C)C)c3ccc(N4CCCC4)cc31)CO2` [Compound 53] was 55 nM; that for `CCC(C)Nc1ccc2c(c1)/C(=C1\COCCN1)C(=O)N2C(C)C` (stereo not drawn) [Compound 54] was 24 nM. To `CC(C)N1C(=O)/C(=C2/COCCN2)c2cc(NC(C)C(C)(C)C)ccc21` (stereo not drawn) [Compound 55] belongs 38 nM. For `CC(Nc1ccc2c(c1)/C(=C1\COCCN1)C(=O)N2C(C)C)C1CCCC1` (stereo not drawn) [Compound 56], the half-maximal inhibitory concentration (IC50) worked out at 2 nM. The value for `CC(Nc1ccc2c(c1)/C(=C1\COCCN1)C(=O)N2C(C)C)c1cnccn1` (stereo not drawn) [Compound 57] was 199 nM. The value for `CC(C)N1C(=O)/C(=C2/COCCN2)c2cc(NCC3CC3)ccc21` [Compound 58] was 19 nM. The value for `CCC(C)Nc1ccc2c(c1)/C(=C1\COCCN1)C(=O)N2C1CCOCC1` (stereo not drawn) [Compound 59] was 22 nM; that for `O=C1/C(=C2/COCCN2)c2cc(NC3CCCC3)ccc2N1C1CCOCC1` [Compound 60] was 10 nM; that for `CC(Nc1ccc2c(c1)/C(=C1\COCCN1)C(=O)N2C1CCOCC1)C1CCCC1` (stereo not drawn) [Compound 61] was 12 nM.

For `CN(C)c1ccc2c(c1)/C(=C1\CCCCN1)C(=O)N2C` [Compound 62], the half-inhibitory concentration (IC50) turned out to be 162 nM.

Regarding `CC(C)Nc1ccc2c(c1)/C(=C1\COCCN1)C(=O)N2C` [Compound 63], the IC50 was 134 nM. For `CN1CCN/C(=C2\C(=O)N(C)c3ccc(N4CCCC4)cc32)CC1` [Compound 64], the concentration for half-maximal inhibition (IC50) turned out to be 65 nM. The value for `O=C1/C(=C2/COCCN2)c2cc(NC3CCCC3)ccc2N1C1COC1` [Compound 65] was 18 nM; that for `CC(C)C(C)Nc1ccc2c(c1)/C(=C1\COCCN1)C(=O)N2C1COC1` (stereo not drawn) [Compound 66] was 19 nM; that for `CC(Nc1ccc2c(c1)/C(=C1\COCCN1)C(=O)N2C1COC1)C1CC1` (stereo not drawn) [Compound 67] was 37 nM. As to `COCC(C)N1C(=O)/C(=C2/COCCN2)c2cc(N3CCCC3)ccc21` (stereo not drawn) [Compound 68], the concentration for half-maximal inhibition (IC50) was 134 nM. The value for `CC(C)Nc1ccc2c(c1)/C(=C1\COCCN1)C(=O)N2[C@H]1CCN(C2COC2)C1` [Compound 69] was 141 nM.

Consider `O=C1/C(=C2/CC3(CN2)COC3)c2cc(NC3CCOC3)ccc2N1C1CCOCC1` (stereo not drawn) [Compound 70], for which the IC50 was found to be 1150 nM. Regarding `CC(Nc1ccc2c(c1)/C(=C1\COCCN1)C(=O)N2C(C)C)c1ccccn1` (stereo not drawn) [Compound 71], the IC50 was 131 nM. As to `CC(C)N1C(=O)/C(=C2/COCCN2)c2cc(NC3CCC(F)(F)CC3)ccc21` [Compound 72], the IC50 was determined as 6 nM. For `CC(C)N1C(=O)/C(=C2/COCCN2)c2cc(NC3CCOCC3F)ccc21` (stereo not drawn) [Compound 73], the IC50 is 264 nM.

On to `CC(C)N1C(=O)/C(=C2/COCCN2)c2cc(NCc3cc[nH]n3)ccc21` [Compound 74], for which the concentration for half-maximal inhibition (IC50) was 144 nM. To `CC(C)N1C(=O)/C(=C2/COCCN2)c2cc(NCC3CCOCC3)ccc21` [Compound 75] belongs 73 nM; to `CCC(CC)Nc1ccc2c(c1)/C(=C1\COCCN1)C(=O)N2C1CCOCC1` [Compound 76], 24 nM.

With `CC(Nc1ccc2c(c1)/C(=C1\COCCN1)C(=O)N2C1CCOCC1)c1ccccn1` (stereo not drawn) [Compound 77], the half-inhibitory concentration (IC50) came to 48 nM. The value for `O=C1/C(=C2/COCCN2)c2cc(NC3CCC(F)(F)CC3)ccc2N1C1CCOCC1` [Compound 78] was 37 nM; that for `CC(Nc1ccc2c(c1)/C(=C1\COCCN1)C(=O)N2C1CCOCC1)c1ccnn1C` (stereo not drawn) [Compound 79] was 221 nM; that for `O=C1/C(=C2/COCCN2)c2cc(NC3CCOCC3F)ccc2N1C1CCOCC1` (stereo not drawn) [Compound 80] was 345 nM. To `O=C1/C(=C2/COCCN2)c2cc(NCC3CCOCC3)ccc2N1C1CCOCC1` [Compound 81] belongs 233 nM.
